From paper PMC10411625, “Rationally designed stapled peptides allosterically inhibit PTBP1–RNA-binding” (Chemical Science, 2023)

Columns and labels:
[1] = test system: HEK293T cells; assay: Cell viability assay (CellTiterGlo 2.0); assay type: cell-based; settings: CellTiterGlo 2.0, concentrations of up to 300 μM
Method: protein was buffer exchanged into CD-Buffer using spin columns and measurements were performed in this buffer under similar conditions with protein concentrations of 0.2 mg/ml.
Co-Crystallisation of RRM1Δα3 with P-6
Protein construct RRM1Δα3 was purified using the protocol discussed above and concentrated to 14 mg/ml. P-6 was dissolved in SEC buffer and added in a 1.5 molar excess to the protein solution. After removal of particles by centrifugation (20000 x g, 4 °C, 10 min) sitting-drop experiments were set up by adding 200 nl of protein/ligand to 100 nl reservoir solution (1.89 M (NH4)2SO4, 0.1 M HEPES pH 6.86, 2% v/v PEG400) in MRC 3-drop plates. Sealed plates were incubated at 20 °C using a Formulatrix RockImager and crystals were obtained after several days. Prior to flash-freezing the crystals were cryo conserved by adding 0.5 µl reservoir solution containing 20% v/v glycerol to the drop.
X-ray data collection and processing
X-ray diffraction data was collected at X10SA (PXII) at Swiss Light Source. […]
HEK293T cells were seeded at 30000 cells/well in 75 µl DMEM supplemented with 10% FBS with 1x Pen-Strep (Gibco) in 96-well plates on the day prior the experiment. […] Cell viability was read out using CellTiterGlo 2.0 (Promega) according to the manufacturers protocol. Viability was calculated in % of signal normalized to the DMSO controls.

[2] = target: T1, SRSF1 (Homo sapiens, UniProt Q07955); assay: Competitive fluorescence polarization assay, SRSF1 and RNA-S; assay type: binding; settings: Fig. 3C; competitive FP, 400 nM SRSF1, 1 nM Cy5-labeled RNA-S, pH 7.0; read-out: P-6 Ki, construct SRSF1
T1 construct: SRSF1-RRM12 (1-195); His tag (cleaved yes); made in house; host or cells: E. coli BL21 (DE3)
T1 sequence (Q07955 1-195, species assumed): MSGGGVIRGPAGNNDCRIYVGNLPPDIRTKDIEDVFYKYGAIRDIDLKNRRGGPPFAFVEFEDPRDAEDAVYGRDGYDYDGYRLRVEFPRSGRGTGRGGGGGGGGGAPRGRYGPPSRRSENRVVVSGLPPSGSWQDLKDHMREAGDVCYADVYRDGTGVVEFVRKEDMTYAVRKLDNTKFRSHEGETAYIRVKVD
Source text: The RRM domain is the most commonly occurring RNA-binding domain in the proteome making it challenging to find selective inhibitors.[23,46] Although various ligands have been described, their selectivity is rarely investigated, with an exception for the Musashi-1 inhibitor Ro 08-2750.[47–58] To investigate whether P-6 has an effect on the RNA-binding of other dual RRM containing proteins, we evaluated its inhibitory potency against another hnRNP protein (hnRNP A2/B1) as well as a splicing factor from the SR-protein class (SRSF1).[1] We evaluated P-6 in competitive fluorescence polarization assays using previously described RNAs recognized by these proteins.[59] […]
performed in FP bufferPTBP1. […]
serially diluted in the same buffer. […]
a final concentration of 10 nM probe. […]
the settings mentioned previously.
Fluorescence polarization assay with SRSF1
Fluorescence polarization was
Fluorescence polarization assay with hnRNPA2/B1
For the competitive assay 10 nM
Microscale thermophoresis […]
afterwards serially diluted into FP buffer.
The data was evaluated at […]
experiments were performed in duplicates.
Circular Dichroism Spectroscopy […]
secondary structure analysis with a reference data set. For experiments with PTBP1 constructs the […]

Question: Which results are given for `CC(=O)N[C@@H](CC(N)=O)C(=O)N[C@@H](CCC(N)=O)C(=O)N[C@@]1(C)CCCC=CCCCC2(CCCC=CCCC[C@](C)(C(=O)N[C@H](C(=O)N[C@@H](CC(N)=O)C(N)=O)C(C)C)NC(=O)[C@H](CCC(N)=O)NC(=O)[C@H](CC(C)C)NC(=O)[C@H](C)NC2=O)NC(=O)[C@H](CCC(N)=O)NC(=O)[C@H](C)NC(=O)[C@H](CCCNC(=N)N)NC1=O` (some centres unmarked) [Peptide P-6]?
Answer: cell viability (in words) [1]: not affected; Ki [2]: > 1000 µM
